This assay has as its target T1, PalQ (Paenibacillus alvei, UniProt A0ABT4H1V4).
T1 construct: gene M5X12_20665; homodimer by size exclusion chromatography
T1 sequence (A0ABT4H1V4 1-312): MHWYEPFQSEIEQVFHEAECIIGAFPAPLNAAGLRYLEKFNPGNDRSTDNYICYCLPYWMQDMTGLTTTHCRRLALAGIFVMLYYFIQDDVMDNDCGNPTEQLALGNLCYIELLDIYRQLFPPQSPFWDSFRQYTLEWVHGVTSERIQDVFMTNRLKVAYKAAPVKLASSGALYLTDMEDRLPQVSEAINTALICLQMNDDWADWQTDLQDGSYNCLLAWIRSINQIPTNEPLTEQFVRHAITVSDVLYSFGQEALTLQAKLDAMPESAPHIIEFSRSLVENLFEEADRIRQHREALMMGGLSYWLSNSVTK
The experiment in a line: prenylation kinetics, Michaelis-Menten curve. The following applies: acceptor PalX; curve without saturation, poor water solubility. It is filed as biochemical.

Structures are written as SMILES.

Consider `CC(C)=CCC/C(C)=C/CC/C(C)=C/COP(=O)(O)OP(=O)(O)O` [FPP], for which the “prenylation kinetics, Michaelis-Menten curve” value is “We then assessed the kinetics of PalQ for DMAPP, GPP, and FPP”.
Consider `CC(C)=CCC/C(C)=C/COP(=O)(O)OP(=O)(O)O` [GPP], for which the “prenylation kinetics, Michaelis-Menten curve” value is “We then assessed the kinetics of PalQ for DMAPP, GPP, and FPP”.
